From article PMC12682947, “Identification of New KCNT1‐Epilepsy Drugs by In Silico, Cell, and Drosophila Modeling” (Annals of Neurology, 2025)
Counter-ions that a name gives are not always drawn.

Legend:
[1] = target: T1, WT and mutant human KCNT1 channels (Homo sapiens, UniProt Q5JUK3); test: Inside-out patch clamp, statements pooled over WT and mutant channels; format: cell-based; details: inside-out patches; for inhibition at 0.25 µM: 250 nM
T1 sequence (Q5JUK3 1-1230): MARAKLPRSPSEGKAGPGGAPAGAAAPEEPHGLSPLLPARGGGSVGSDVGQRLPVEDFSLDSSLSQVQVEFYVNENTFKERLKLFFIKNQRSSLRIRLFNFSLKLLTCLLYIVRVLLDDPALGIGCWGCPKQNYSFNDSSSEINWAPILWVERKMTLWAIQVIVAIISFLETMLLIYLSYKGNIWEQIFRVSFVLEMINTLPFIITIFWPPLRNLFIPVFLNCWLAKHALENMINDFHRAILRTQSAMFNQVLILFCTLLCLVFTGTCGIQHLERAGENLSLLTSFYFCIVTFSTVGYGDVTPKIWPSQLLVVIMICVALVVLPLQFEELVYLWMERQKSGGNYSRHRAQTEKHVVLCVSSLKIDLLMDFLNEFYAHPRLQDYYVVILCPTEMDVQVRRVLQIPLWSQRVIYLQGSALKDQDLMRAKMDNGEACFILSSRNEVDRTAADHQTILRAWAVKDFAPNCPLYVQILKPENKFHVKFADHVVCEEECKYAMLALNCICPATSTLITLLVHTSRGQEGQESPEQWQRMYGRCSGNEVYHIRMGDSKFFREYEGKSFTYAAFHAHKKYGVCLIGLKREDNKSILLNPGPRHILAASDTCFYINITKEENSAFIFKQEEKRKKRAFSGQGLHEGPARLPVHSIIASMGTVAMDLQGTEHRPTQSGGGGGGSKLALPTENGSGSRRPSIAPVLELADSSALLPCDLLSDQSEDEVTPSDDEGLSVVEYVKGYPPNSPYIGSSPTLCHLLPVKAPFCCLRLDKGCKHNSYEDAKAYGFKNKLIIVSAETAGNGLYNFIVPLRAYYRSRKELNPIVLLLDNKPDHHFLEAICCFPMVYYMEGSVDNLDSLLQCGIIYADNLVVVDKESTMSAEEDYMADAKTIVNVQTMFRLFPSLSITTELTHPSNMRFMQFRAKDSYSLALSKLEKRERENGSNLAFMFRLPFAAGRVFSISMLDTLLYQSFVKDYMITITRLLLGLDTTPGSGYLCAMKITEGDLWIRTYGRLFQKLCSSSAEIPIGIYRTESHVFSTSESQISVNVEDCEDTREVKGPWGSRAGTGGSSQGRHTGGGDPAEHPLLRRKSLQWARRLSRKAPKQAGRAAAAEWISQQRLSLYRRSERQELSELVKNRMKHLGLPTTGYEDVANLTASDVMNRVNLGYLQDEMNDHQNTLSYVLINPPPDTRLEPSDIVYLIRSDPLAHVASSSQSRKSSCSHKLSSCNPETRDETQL
Procedure: The CHO cells were cultured in Dulbecco's modified Eagle's Medium (ThermoFisher, UK) supplemented with 10% (v/v) fetal bovine serum, 50 U/ml penicillin and 0.05 mg/ml streptomycin, and incubated at 37°C in 5% CO2 atmosphere. For whole cell recording of WT/Y796H KCNT1, CHO cells were transiently co‐transfected with concatemeric WT/Y796H and EYFP, as described previously.[29] For electrophysiological experiments, cells were plated onto borosilicate glass cover slips and used 2 to 4 days later. Human embryonic kidney 293T cells (HEK293T) were cultured in the same manner, but with medium supplemented with 2 mM L‐glutamine, and 1% (v/v) nonessential amino acids. For excised inside‐out recording of homomeric WT or mutant YFP‐tagged KCNT1, HEK293T cells plated on glass cover slips were transfected using Attractene Transfection Reagent (Qiagen, Germany) according to the manufacturer's instructions and used 2 to 3 days later.
Inside‐out patch clamp recordings were made at room temperature (23°C) from transiently transfected HEK293T cells, as described previously.[11] The pipette solution contained, in mM, 140 NaCl, 4 KCl, 2 CaCl2, 2 MgCl2, and 10 HEPES adjusted to pH 7.4 with NaOH. After achieving the inside‐out configuration, the intracellular face of the membrane was constantly perfused with a solution containing, in mM, 35 NaCl, 110 KCl, 0.2 EGTA, and 10 HEPES adjusted to pH 7.3 with KOH. Drug stock solutions of 5 to 20 mM in DMSO were first diluted in ethanol (1:10) and then in electrophysiological solution. KCNT1 currents were recorded using 2 voltage protocols, depending on the number of active channels in the patch before drug application. Macroscopic currents (number of active channels > 15) were recorded in response to 100 ms voltage ramps between −120 and 120 mV applied every 2 seconds from a holding potential of −78 mV. The average current amplitudes between 0 and 40 mV were used for the analyses and constructing the concentration‐response curves. With a lower number of active channels in the patch (3–15), current traces were recorded in response to 15‐second voltage steps to −20, 0, and 20 mV from a holding potential of −78 mV. Currents recorded at each voltage and each drug concentration were averaged over the duration of the trace and normalized to the average amplitudes of the corresponding current traces in drug‐free solution. The normalized data for all 3 voltage steps were then averaged for each drug concentration and used to build the concentration‐response curves (see Supplementary Fig S3). To determine the IC50, data were fitted with the Hill equation, as described previously.[11] Single channel data were analyzed using Ana software developed by Dr Michael Pusch (Istituto di Biofisica, Genova, Italy; http://users.ge.ibf.cnr.it/pusch/programs-mik.htm). […]

[2] = cited from earlier work
hERG potassium channels = details: read-out: IC50 for inhibition of hERG potassium channels; cited from earlier work

SMILES	inhibition at 0.25 µM [1] [%]	inhibition at 0.3 µM ([1]; 300 nM, read-out: inhibition of single KCNT1 channels) [%]	IC50 ([1]; read-out: direct IC50 on single KCNT1 channels) [µM]	mean plasma concentration ([2]; 900 mg/day (approximately 12 mg/kg for a 75 kg adult), ref Berry et al, 1983) [nM]	tolerability in humans ([2]; 900 mg/day)	mean circulating plasma levels ([2]; patients with osteoarthritis) [µM]	IC50 (hERG potassium channels) [µM]
O=C(OCCN1CCN(c2cccc(C(F)(F)F)c2)CC1)c1ccccc1Nc1ccnc2cc(C(F)(F)F)ccc12 [antrafenine]	80 to 90	~90	~0.01	202	well tolerated	0.3	–
Cc1c(O)cccc1C(=O)N[C@@H](CSc1ccccc1)[C@H](O)CN1C[C@H]2CCCC[C@H]2C[C@H]1C(=O)NC(C)(C)C [nelfinavir mesylate]	80 to 90	–	–	–	–	–	11.5
